Measured values published in patent publication US9199965B2, “Benzoimidazole derivatives and pharmaceutical composition comprising the same” (Daewoong Co., Ltd., priority 2005, dated 2015).

How the values were obtained:
rat TRPV1 = target: T1, rat TRPV1 (Rattus norvegicus, UniProt O35433); assay: Assay for inhibitory activity against VR1 patch clamp activity (capsaicin current, inside-out patch); type: cell-based; details: 1 μM compound with 10 μM capsaicin; rat TRPV1-transfected HEK293, inside-out patch; relative to capsaicin current before compound
T1 construct: expressed in transfected cells; host or cells: HEK293
T1 sequence (O35433 whole entry): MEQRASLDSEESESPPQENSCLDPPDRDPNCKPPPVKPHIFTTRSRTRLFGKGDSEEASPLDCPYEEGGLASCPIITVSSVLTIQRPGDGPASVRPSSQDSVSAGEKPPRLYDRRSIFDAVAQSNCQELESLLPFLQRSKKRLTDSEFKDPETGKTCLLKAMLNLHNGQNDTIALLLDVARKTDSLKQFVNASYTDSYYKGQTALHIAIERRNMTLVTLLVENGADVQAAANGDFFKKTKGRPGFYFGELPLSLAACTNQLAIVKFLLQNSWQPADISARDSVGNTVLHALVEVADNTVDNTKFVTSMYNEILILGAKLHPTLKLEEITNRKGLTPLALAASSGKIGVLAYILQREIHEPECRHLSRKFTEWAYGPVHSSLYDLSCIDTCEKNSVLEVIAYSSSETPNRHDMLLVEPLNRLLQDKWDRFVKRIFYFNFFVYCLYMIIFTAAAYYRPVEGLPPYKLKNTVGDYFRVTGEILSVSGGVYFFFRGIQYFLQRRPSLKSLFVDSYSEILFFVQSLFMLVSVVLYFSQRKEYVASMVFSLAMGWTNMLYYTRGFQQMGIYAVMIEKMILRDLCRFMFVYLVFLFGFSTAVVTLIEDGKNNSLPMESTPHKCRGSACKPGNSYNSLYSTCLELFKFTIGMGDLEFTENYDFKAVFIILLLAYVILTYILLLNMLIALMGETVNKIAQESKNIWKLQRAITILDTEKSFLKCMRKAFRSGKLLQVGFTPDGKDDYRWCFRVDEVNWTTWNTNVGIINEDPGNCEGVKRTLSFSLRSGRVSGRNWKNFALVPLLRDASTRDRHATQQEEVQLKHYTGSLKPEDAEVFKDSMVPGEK
Protocol: Each of the compounds synthesized in the examples were dissolved in dimethyl sulfoxide (DMSO) at a concentration of 10 mM. For use in the assay for inhibitory activity against patch clamp activity, the solutions were diluted to a concentration of 1 μM with the same physiological saline as in the pipette solution of Table 1, below.
2) Assay for Inhibitory Activity Against VR1 Patch Clamp Activity
In this experiment, changes in VR1 activity were recorded in current using an electrophysiological technique.
For use in this experiment, a rat TRPV1 cDNA was transfected into a subcultured HEK293 strain with the aid of lipofectamin.
The rat TRPV1 gene-transfected HEK293 cells were detached from the cell culture dishes with trypsin and distributed on a patch clamp recording chamber.
A cover glass slip on the bottom of the patch clamp recording chamber was treated for 15 min or longer with a […] poly-L-lysine solution so that the HEK cells would readily adhere thereto. Cellular membranes were ruptured at room temperature (˜25° C.) from randomly selected HEK cells to perform an inside-out patch clamp technique. 10 μM of capsaicin was fed into the chamber (cytoplasmic side) to activate a capsaicin current through the VR1. When the capsaicin current reached a stable stage, each compound was added along with 10 μM of capsaicin to record the inhibitory activity of the compounds with regard to the current. The inhibition was expressed as percentages.
Detected current was amplified using a Digidata 1200B A/D converter and an Axopatch 1D amplifier (Axon instruments Inc.), and the data were recorded and analyzed with the aid of a computer. The inhibitory activity of each compound was expressed as a percentage relative to the capsaicin current immediately before the administration of each compound.

human vanilloid-1 (hVR1) = target: T2, human vanilloid-1 (hVR1) (Homo sapiens, UniProt Q8NER1); assay: Calcium influx of vanilloid receptor in hVR1-HEK293 cells (capsaicin-induced, Fluo-3/AM); type: cell-based; details: 1 μM capsaicin-induced intracellular calcium influx, read-out: Inhibitory Activity IC50
T2 construct: expressed in transfected cells; host or cells: HEK293 Tet-on (hVR1-HEK293), doxycycline-induced
T2 sequence (Q8NER1 whole entry): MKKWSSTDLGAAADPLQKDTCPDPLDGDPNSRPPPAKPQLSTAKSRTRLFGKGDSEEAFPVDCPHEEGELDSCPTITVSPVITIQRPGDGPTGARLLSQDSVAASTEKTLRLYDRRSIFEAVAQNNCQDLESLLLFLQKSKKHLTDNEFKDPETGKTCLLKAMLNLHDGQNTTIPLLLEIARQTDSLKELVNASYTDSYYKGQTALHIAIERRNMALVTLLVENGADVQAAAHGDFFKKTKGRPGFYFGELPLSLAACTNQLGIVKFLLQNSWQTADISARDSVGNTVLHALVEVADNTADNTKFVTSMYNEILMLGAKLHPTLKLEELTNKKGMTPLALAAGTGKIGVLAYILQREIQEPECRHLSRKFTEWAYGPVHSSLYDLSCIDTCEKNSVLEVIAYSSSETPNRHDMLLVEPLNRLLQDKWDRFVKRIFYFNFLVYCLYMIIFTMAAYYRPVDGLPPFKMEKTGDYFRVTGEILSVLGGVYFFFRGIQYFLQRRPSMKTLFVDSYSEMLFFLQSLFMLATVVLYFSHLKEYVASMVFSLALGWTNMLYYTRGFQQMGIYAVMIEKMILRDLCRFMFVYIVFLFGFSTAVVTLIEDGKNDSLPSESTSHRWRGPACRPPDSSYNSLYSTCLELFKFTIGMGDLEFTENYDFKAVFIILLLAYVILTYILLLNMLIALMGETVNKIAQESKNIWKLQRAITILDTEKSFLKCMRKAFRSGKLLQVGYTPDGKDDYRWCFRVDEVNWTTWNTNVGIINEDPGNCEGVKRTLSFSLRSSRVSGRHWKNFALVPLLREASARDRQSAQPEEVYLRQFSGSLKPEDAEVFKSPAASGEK
Protocol: Experiments for calcium influx were performed to measure the activity of the compounds as antagonists.
The cell strain hVR1-HEK293 is the human embryonic kidney (HEK) 293 Tet-on cell transfected with a human vanilloid-1 gene (pTRE2hyg-hVR1, 7.8 kb), which is capable of controlling the expression of VR1 according to the administration of deoxycycline, a tetracycline derivative analog. In a medium supplemented with deoxycycline two days before calcium influx experiments, the cell strain was cultured to induce the expression of VR1. After being grown to a confluency of about 80% in T75 flasks, hVR1-HEK293 was detached from the flask using trypsin. Cells harvested by centrifugation were suspended in a medium supplemented with 1 μg/mL of deoxycycline and diluted to a density of 2-4×10^5 cells/mL, after which a 100 μL aliquot of the cell suspension was added to each well of 96 well black plates. Before the measurement of calcium influx, the cells were incubated for two days at 37° C. in a 5% CO2 incubator.
For use in calcium influx experiments, each compound was dissolved in dimethyl sulfoxide (DMSO).
To measure an intracellular calcium influx, cells were incubated at 37° C. for 90 min in a medium containing the calcium indicator Fluo-3/AM so as to allow the fluorescent dye to penetrate into the cells. Then, the cells were washed three times with D-PBS (Dulbecco's phosphate buffered saline) containing 10 mM HEPES to remove the fluorescent dye which remained outside. 193 μL aliquot of D-PBS was added to each well, followed by the addition of various concentrations of compounds thereto. In order to measure the antagonistic activity of the compounds, calcium influx was induced by treatment with 1 μM capsaicin. The inhibitory effect of each compound on 1 μM capsaicin-induced intracellular calcium influx according to compound concentration was measured using a fluorescent analyzer and the data thus obtained were analyzed on the basis of the Hill's equation.

[1] = tested on: ICR male mice (PBQ-induced writhing); assay: PBQ-induced writhing test for analgesic effect; type: in vivo; details: Mus musculus, 1 h, 20 mg/kg oral, one hour before intraabdominal PBQ (0.02%), read-out: % Inhibition (decrease in number of writhes compared to control)
Protocol: A PBQ-induced writhing test was conducted in mice to assay for the analgesic effect of the novel compounds. Five-week-old ICR male mice were treated with PBQ (phenyl-p-quinone, 0.02%). A suspension of 20 mg of test material in 10 mL of physiological saline was used per kg of weight of mice. Test materials in combination with a carrier were orally administered one hour before the intraabdominal injection of PBQ in a dose of 10 mL per kg weight. From 5 min after the injection, individual mice in each test group were measured for numbers of writhes at regular intervals of 10 min. Analgesic effects of test compounds were expressed as percentages of the decrease in number of writhes compared to a control. [% Inhibition=(Control administered with carrier alone−Group administered with test material)/control administered with carrier alone×100]

SMILES	inhibition at 1 µM (rat TRPV1) [%]	IC50 (human vanilloid-1 (hVR1)) [nM]	inhibition in vivo at 20 mg/kg [1] [%]
FC(F)(F)c1ccc2nc(-c3ccc(-c4ncccc4Cl)c4ccccc34)[nH]c2c1 [Compound 104, 2-[4-(3-chloropyridin-2-yl)naphthalen-1-yl]-6-trifluoromethyl-1H-benzoimidazole]	86	31	
Clc1cc2nc(-c3ccc(-c4ncccc4Cl)cc3)[nH]c2cc1Cl [Compound 12, 2-[4-(3-chloropyridin-2-yl)phenyl]-5,6-dichloro-1H-benzoimidazole]		70	35
FC(F)(F)c1cccnc1-c1ccc(-c2nc3ccc(Cl)cc3[nH]2)cc1 [Compound 32, 6-chloro-2-[4-(3-trifluoromethylpyridin-2-yl)phenyl]-1H-benzoimidazole]	78	13	
FC(F)(F)c1ccc2nc(-c3ccc(-c4ncc(Cl)cc4Cl)cn3)[nH]c2c1 [Compound 151, 3,5-dichloro-6′-(6-trifluoromethyl-1H-benzoimidazole-2-yl)-[2,3′]bipyridine]	84	97	
FC(F)(F)c1cccnc1-c1ccc(-c2nc3ncc(Br)cc3[nH]2)nc1 [Compound 167, 6′-(6-bromo-1H-imidazo[4,5-b]pyridine-2-yl)-3-trifluoromethyl[2,3′]bipyridine]			55
CC(C)(C)c1ccc2nc(-c3ccc(-c4ccccn4)c(Cl)c3)[nH]c2c1 [Compound 126, 6-tert-butyl-2-(3-chloro-4-pyridin-2-ylphenyl)-1H-benzoimidazole]	87	105	
CC(C)(C)c1ccc2nc(-c3ccc(-c4ncc(Cl)cc4Cl)c(Cl)c3)[nH]c2c1 [Compound 118, 6-tert-butyl-2-[3-chloro-4-(3,5-dichloropyridin-2-yl)phenyl]-1H-benzoimidazole]	93	313	
FC(F)(F)c1ccc2nc(-c3ccc(-c4ccccc4)cc3)[nH]c2c1 [Compound 183, 2-biphenyl-4-yl-6-trifluoromethyl-1H-benzoimidazole]	17		
FC(F)(F)c1cccnc1-c1ccc(-c2nc3ccc(N4CCOCC4)cc3[nH]2)nc1 [Compound 169, 6′-(6-morpholin-4-yl-1H-benzoimidazo-2-yl)-3-trifluoromethyl-[2,3′]bipyridine]			57
FC(F)(F)c1cnc2nc(-c3ccc(-c4ncccc4C(F)(F)F)cc3)[nH]c2c1 [Compound 34, 6-trifluoromethyl-2-[4-(3-trifluoromethylpyridin-2-yl)phenyl]-1H-imidazo[4,5-b]pyridine]	16	26	
Fc1ccc2nc(-c3ccc(Oc4ccccc4)cc3)[nH]c2c1 [Compound 193, 6-fluoro-2-(4-phenoxyphenyl)-1H-benzoimidazole]	50		
COc1ccc2nc(-c3ccc(Oc4ccccc4)cc3)[nH]c2c1 [Compound 194, 6-methoxy-2-(4-phenoxyphenyl)-1H-benzoimidazole]	30		
CC(C)(C)c1ccc2nc(-c3ccc(-c4ncccc4C(F)(F)F)cc3)[nH]c2c1 [Compound 30, 6-tert-butyl-2-[4-(3-trifluoromethylpyridin-2-yl)phenyl]-1H-benzoimidazole]	96	23	
Clc1ccc2nc(-c3ccc(-c4ncccc4Cl)cc3)[nH]c2c1 [Compound 2, 6-chloro-2-[4-(3-chloropyridin-2-yl)phenyl]-1H-benzoimidazole]	45	8570	
FC(F)(F)c1cnc2nc(-c3ccc(-c4ncccc4Cl)cc3)[nH]c2c1 [Compound 8, 2-[4-(3-chloropyridin-2-yl)phenyl]-6-trifluoromethyl-1H-imidazo[4,5-b]pyridine]	41	31	
COc1ccc2nc(-c3ccc(-c4ncccc4Cl)cc3)[nH]c2c1 [Compound 5, 2-[4-(3-chloropyridin-2-yl)phenyl]-6-methoxy-1H-benzoimidazole]	10	6040	
CC(C)(C)c1ccc2nc(-c3ccc(-n4cccc4)cc3)[nH]c2c1 [Compound 181, 6-tert-butyl-2-(4-pyrrol-1-ylphenyl]-1H-benzoimidazole]	40	221	
Cc1ccc2nc(-c3ccc(-c4ncccc4Cl)cc3)[nH]c2c1C [Compound 10, 2-[4-(3-chloropyridin-2-yl)phenyl]-6,7-dimethyl-1H-benzoimidazole]	80	114	
Clc1ccc2nc(-c3ccc(Oc4ccccc4)cc3)[nH]c2c1 [Compound 191, 6-chloro-2-(4-phenoxyphenyl)-1H-benzoimidazole]	60		
c1cnc2[nH]c(-c3ccc(-n4cccc4)cc3)nc2c1 [Compound 179, 2-(4-pyrrol-1-ylphenyl)-3H-imidazo[4,5-b]pyridine]	100		
FC(F)(F)c1cc(Cl)c2nc(-c3ccc(-c4ncccc4C(F)(F)F)cn3)[nH]c2c1 [Compound 161, 6′-(4-chloro-6-trifluoromethyl-1H-benzoimidazole-2-yl)-3-trifluoromethyl-[2,3′]bipyridine and 6′-(5-trifluoromethyl-7-chloro-1H-benzoimidazole-2-yl)-3-trifluoromethyl-[2,3′]bipyridine]	58	23	
CC(C)(C)c1ccc2nc(-c3ccc(-c4ncc(C(F)(F)F)cc4Cl)c(Cl)c3)[nH]c2c1 [Compound 121, 6-tert-butyl-2-[3-chloro-4-(3-chloro-5-trifluoromethylpyridin-2-yl)phenyl]-1H-benzoimidazole]	76		
FC(F)(F)c1cc(C(F)(F)F)c2nc(-c3ccc(-c4ccccn4)c4ccccc34)[nH]c2c1 [Compound 115, 2-(4-pyridin-2-ylnaphthalen-1-yl)-4,6-bistrifluoromethyl-1H-benzoimidazole]	71		
CC(C)(C)c1ccc2nc(-c3ccc(-c4ncc(Cl)cc4Cl)cc3F)[nH]c2c1 [Compound 70, 6-tert-butyl-2-[4-(3,5-dichloropyridin-2-yl)-2-fluorophenyl]-1H-benzoimidazole]	45		
CC(C)(C)c1ccc2nc(-c3ccc(-c4ncccc4Cl)c(Cl)c3)[nH]c2c1 [Compound 116, 6-tert-butyl-2-[3-chloro-4-(3-chloropyridin-2-yl)phenyl]-1H-benzoimidazole]	30		
FC(F)(F)c1ccc2nc(-c3ccc(-n4cccc4)cc3)[nH]c2c1 [Compound 178, 2-(4-pyrrol-1-ylphenyl]-6-trifluoromethyl-1H-benzoimidazole]	20		
FC(F)(F)c1ccc2nc(-c3ccc(-c4ncc(Cl)cc4Cl)c(Cl)c3)[nH]c2c1 [Compound 117, 2-[3-chloro-4-(3,5-dichloropyridin-2-yl)phenyl]-6-trifluoromethyl-1H-benzoimidazole]	80	525	
